Data from patent US5840684A, “Glycopeptide antibiotic derivatives” (Eli Lilly and Company, priority 1995, dated 1998).
Values after ≈ are worked out from the molar mass of the structure shown.

What was measured:
[1] = test system: Staphylococcus aureus SA1199B; type: cell-based
Method: (§1) The MIC's were determined using a standard broth micro-dilution assay.

[2] = test system: Staphylococcus aureus S13E; type: cell-based
Method: as §1

[3] = test system: Staphylococcus haemolyticus 105; experiment: broth micro-dilution MIC; type: cell-based
Method: (§2) The formula I compounds have in vitro and in vivo activity against Gram-positive pathogenic bacteria. The MIC's were determined using a standard broth micro-dilution assay.

[4] = test system: Enterococcus gallinarum 245; experiment: broth micro-dilution MIC; type: cell-based; details: Enterococcus gallinarum 245
Method: as §2

[5] = test system: Haemophilus influenzae RD; experiment: broth micro-dilution MIC; type: cell-based; details: Haemophilus influenzae RD
Method: as §2

[6] = test system: Streptococcus pneumoniae P1; experiment: broth micro-dilution MIC; type: cell-based
Method: as §2

[7] = test system: Staphylococcus haemolyticus 415; experiment: broth micro-dilution MIC; type: cell-based
Method: as §2

[8] = test system: Entercoccus faecium 2041; experiment: broth micro-dilution MIC; type: cell-based; details: Entercoccus faecium 2041
Method: as §2

[9] = test system: Entercoccus faecium 180; experiment: broth micro-dilution MIC; type: cell-based; details: Entercoccus faecium 180
Method: as §2

[10] = test system: Staphylococcus epidermidis 270; experiment: broth micro-dilution MIC; type: cell-based
Method: as §2

[11] = test system: Escherichia coli EC14; experiment: broth micro-dilution MIC; type: cell-based
Method: as §2

[12] = test system: vancomycin-resistant enterococci; experiment: broth micro-dilution, mean geometric MIC; type: cell-based, Enterococcus faecium and Enterococcus faecalis; details: enterococci, 24-hour incubation
[13] = test system: vancomycin-susceptible enterococci; experiment: broth micro-dilution, mean geometric MIC; type: cell-based, Enterococcus faecium and Enterococcus faecalis; details: enterococci, 24-hour incubation
[14] = test system: Staphylococcus aureus 489; experiment: broth micro-dilution MIC; type: cell-based
Method: as §1

[15] = test system: Entercoccus faecium 276; experiment: broth micro-dilution MIC; type: cell-based
Method: as §1

[16] = test system: Streptococcus pyogenes C203; experiment: broth micro-dilution MIC; type: cell-based
Method: as §1

[17] = test system: Staphylococcus aureus SA1199; experiment: broth micro-dilution MIC; type: cell-based
Method: as §1

[18] = test system: Staphylococcus aureus 446; experiment: broth micro-dilution MIC; type: cell-based
Method: as §1

[19] = test system: Entercoccus faecium 180-1; experiment: broth micro-dilution MIC; type: cell-based
Method: as §1

[20] = test system: Staphylococcus aureus 491; experiment: broth micro-dilution MIC; type: cell-based
Method: as §1

[21] = test system: Staphylococcus aureus 447; experiment: broth micro-dilution MIC; type: cell-based
Method: as §1

[22] = test system: Staphylococcus aureus SA1199A; experiment: broth micro-dilution MIC; type: cell-based
Method: as §1

[23] = test system: Staphylococcus aureus X400; experiment: broth micro-dilution MIC; type: cell-based
Method: as §1

[24] = test system: Staphylococcus aureus X778; experiment: broth micro-dilution MIC; type: cell-based
Method: as §1

Row | SMILES | MIC [1] [µg/mL] | MIC [2] [µg/mL] | MIC [3] [µg/mL] | MIC [4] [µg/mL] | MIC [5] [µg/mL] | MIC [6] [µg/mL] | MIC [7] [µg/mL] | MIC [8] [µg/mL] | MIC [9] [µg/mL] | MIC [10] [µg/mL] | MIC [11] [µg/mL] | mean geometric MIC, Vancomycin Resistant Strains [12] [µg/mL] | mean geometric MIC, Vancomycin Sensitive Strains [13] [µg/mL] | MIC [14] [µg/mL] | MIC [15] [µg/mL] | MIC [16] [µg/mL] | MIC [17] [µg/mL] | MIC [18] [µg/mL] | MIC [19] [µg/mL] | MIC [20] [µg/mL] | also measured
1 | CNC(CC(C)C)C(=O)NC1C(=O)NC(CC(N)=O)C(=O)NC2C(=O)NC3C(=O)NC(C(=O)NC(C(=O)O)c4cc(O)cc(O)c4-c4cc3ccc4O)C(OC3CC(C)(NCc4ccc(C(F)(F)F)cc4)C(O)C(C)O3)c3ccc(c(Cl)c3)Oc3cc2cc(c3OC2OC(CO)C(O)C(O)C2OC2CC(C)(NCc3ccc(C(F)(F)F)cc3)C(O)C(C)O2)Oc2ccc(cc2Cl)C1O (stereo not drawn) [Compound 272] | ≤ 0.06 | 0.125 (≈ 0.0655 µM) | 0.125 (≈ 0.0655 µM) | 0.5 (≈ 0.262 µM) | > 64 | ≤ 0.06 | 0.5 (≈ 0.262 µM) | 0.125 (≈ 0.0655 µM) | 0.5 (≈ 0.262 µM) | ≤ 0.06 | > 64 | 4.75 | 0.072 | 0.125 (≈ 0.0655 µM) | 0.125 (≈ 0.0655 µM) | ≤ 0.06 | 0.25 (≈ 0.131 µM) | 0.25 (≈ 0.131 µM) | ≤ 0.06 | 0.25 (≈ 0.131 µM) | MIC [21]: 0.25 µg/mL (≈ 0.131 µM); MIC [22]: ≤ 0.06 µg/mL; MIC [23]: 0.125 µg/mL (≈ 0.0655 µM); MIC [24]: 0.125 µg/mL (≈ 0.0655 µM)
2 | CC(C)CC(C(=O)NC1C(=O)NC(CC(N)=O)C(=O)NC2C(=O)NC3C(=O)NC(C(=O)NC(C(=O)O)c4cc(O)cc(O)c4-c4cc3ccc4O)C(OC3CC(C)(N)C(O)C(C)O3)c3ccc(c(Cl)c3)Oc3cc2cc(c3OC2OC(CO)C(O)C(O)C2OC2CC(C)(NCc3ccncc3)C(O)C(C)O2)Oc2ccc(cc2Cl)C1O)N(C)Cc1ccncc1 (stereo not drawn) [Compound 274] | 2 (≈ 1.13 µM) | 4 (≈ 2.25 µM) | > 64 | > 64 | > 64 | ≤ 0.06 | > 64 | 1 (≈ 0.563 µM) | > 64 | 16 (≈ 9.02 µM) | > 64 | > 128 | 9.2 | 2 (≈ 1.13 µM) | 1 (≈ 0.563 µM) | 0.125 (≈ 0.0704 µM) | 2 (≈ 1.13 µM) | 8 (≈ 4.51 µM) | 0.5 (≈ 0.282 µM) | 4 (≈ 2.25 µM) | MIC [21]: 16 µg/mL (≈ 9.02 µM); MIC [22]: 1 µg/mL (≈ 0.563 µM); MIC [23]: 8 µg/mL (≈ 4.51 µM); MIC [24]: 4 µg/mL (≈ 2.25 µM)
3 | CNC(CC(C)C)C(=O)NC1C(=O)NC(CC(N)=O)C(=O)NC2C(=O)NC3C(=O)NC(C(=O)NC(C(=O)O)c4cc(O)cc(O)c4-c4cc3ccc4O)C(OC3CC(C)(NCc4cnc5ccccc5c4)C(O)C(C)O3)c3ccc(c(Cl)c3)Oc3cc2cc(c3OC2OC(CO)C(O)C(O)C2OC2CC(C)(NCc3cnc4ccccc4c3)C(O)C(C)O2)Oc2ccc(cc2Cl)C1O (stereo not drawn) [Compound 275] | 0.125 (≈ 0.0667 µM) | 0.125 (≈ 0.0667 µM) | 1 (≈ 0.533 µM) | 4 (≈ 2.13 µM) | > 64 | ≤ 0.06 | 4 (≈ 2.13 µM) | ≤ 0.06 | 1 (≈ 0.533 µM) | 1 (≈ 0.533 µM) | > 64 | 16 | 0.33 | ≤ 0.06 | ≤ 0.06 | ≤ 0.06 | ≤ 0.06 | 0.25 (≈ 0.133 µM) | ≤ 0.06 | 1 (≈ 0.533 µM) | MIC [21]: 1 µg/mL (≈ 0.533 µM); MIC [22]: ≤ 0.06 µg/mL; MIC [23]: 0.25 µg/mL (≈ 0.133 µM); MIC [24]: ≤ 0.06 µg/mL
4 | CC(C)CC(C(=O)NC1C(=O)NC(CC(N)=O)C(=O)NC2C(=O)NC3C(=O)NC(C(=O)NC(C(=O)O)c4cc(O)cc(O)c4-c4cc3ccc4O)C(OC3CC(C)(N)C(O)C(C)O3)c3ccc(c(Cl)c3)Oc3cc2cc(c3OC2OC(CO)C(O)C(O)C2OC2CC(C)(NCc3cc4ccccc4s3)C(O)C(C)O2)Oc2ccc(cc2Cl)C1O)N(C)Cc1cc2ccccc2s1 (stereo not drawn) [Compound 276] | 1 (≈ 0.531 µM) | 2 (≈ 1.06 µM) | 4 (≈ 2.12 µM) | 4 (≈ 2.12 µM) | > 64 | ≤ 0.06 | 4 (≈ 2.12 µM) | 1 (≈ 0.531 µM) | 4 (≈ 2.12 µM) | 4 (≈ 2.12 µM) | > 64 | 23 | 1.3 | 1 (≈ 0.531 µM) | 1 (≈ 0.531 µM) | ≤ 0.06 | 1 (≈ 0.531 µM) | 1 (≈ 0.531 µM) | 0.25 (≈ 0.133 µM) | 1 (≈ 0.531 µM) | MIC [21]: 4 µg/mL (≈ 2.12 µM); MIC [22]: 0.25 µg/mL (≈ 0.133 µM); MIC [23]: 2 µg/mL (≈ 1.06 µM); MIC [24]: 1 µg/mL (≈ 0.531 µM)
5 | COc1ccc2nc(-c3ccccc3)cc(CNC3(C)CC(OC4C(Oc5c6cc7cc5Oc5ccc(cc5Cl)C(OC5CC(C)(N)C(O)C(C)O5)C5NC(=O)C(NC(=O)C7NC(=O)C(CC(N)=O)NC(=O)C(NC(=O)C(CC(C)C)N(C)Cc7cc(-c8ccccc8)nc8ccc(OC)cc78)C(O)c7ccc(c(Cl)c7)O6)c6ccc(O)c(c6)-c6c(O)cc(O)cc6C(C(=O)O)NC5=O)OC(CO)C(O)C4O)OC(C)C3O)c2c1 (stereo not drawn) [Compound 277] | 16 (≈ 7.67 µM) | 16 (≈ 7.67 µM) | > 64 | > 64 | > 64 | ≤ 0.06 | > 64 | 2 (≈ 0.958 µM) | 2 (≈ 0.958 µM) | 16 (≈ 7.67 µM) | > 64 | 32 | 1.1 | 16 (≈ 7.67 µM) | 1 (≈ 0.479 µM) | ≤ 0.06 | 16 (≈ 7.67 µM) | 64 (≈ 30.7 µM) | 0.5 (≈ 0.24 µM) | 8 (≈ 3.83 µM) | MIC [21]: > 64 µg/mL; MIC [22]: 1 µg/mL (≈ 0.479 µM); MIC [23]: 32 µg/mL (≈ 15.3 µM); MIC [24]: 32 µg/mL (≈ 15.3 µM)
6 | CNC(CC(C)C)C(=O)NC1C(=O)NC(CC(N)=O)C(=O)NC2C(=O)NC3C(=O)NC(C(=O)NC(C(=O)O)c4cc(O)cc(O)c4-c4cc3ccc4O)C(OC3CC(C)(NCc4ccc(SC)cc4)C(O)C(C)O3)c3ccc(c(Cl)c3)Oc3cc2cc(c3OC2OC(CO)C(O)C(O)C2OC2CC(C)(NCc3ccc(SC)cc3)C(O)C(C)O2)Oc2ccc(cc2Cl)C1O (stereo not drawn) [Compound 278] | 0.5 (≈ 0.268 µM) | 1 (≈ 0.536 µM) | 0.5 (≈ 0.268 µM) | 2 (≈ 1.07 µM) | > 64 | ≤ 0.06 | 2 (≈ 1.07 µM) | 0.125 (≈ 0.067 µM) | 1 (≈ 0.536 µM) | 1 (≈ 0.536 µM) | > 64 | 8 | 0.29 | 0.5 (≈ 0.268 µM) | 0.25 (≈ 0.134 µM) | ≤ 0.06 | 0.25 (≈ 0.134 µM) | 1 (≈ 0.536 µM) | ≤ 0.06 | 1 (≈ 0.536 µM) | MIC [21]: 2 µg/mL (≈ 1.07 µM); MIC [22]: 1 µg/mL (≈ 0.536 µM); MIC [23]: 0.25 µg/mL (≈ 0.134 µM); MIC [24]: 0.5 µg/mL (≈ 0.268 µM)
